Measurements: a flash point compilation (Sun et al. 2020)
Counter-ions that a name gives are not always drawn.

Row | flash point | SMILES
1 | 96.00 °C | COC(=O)c1ccccc1O [methyl 2-hydroxybenzoate]
2 | 96.00 °C | COC(=O)c1ccc(C)cc1 [methyl 4-methylbenzoate]
3 | -10.00 °C | COC(C)=O [methyl acetate]
4 | 14.00 °C | CCCC(=O)OC [methyl butanoate]
5 | 73.00 °C | CCCCCC(=O)OC [methyl hexanoate]
6 | 153.00 °C | CCCCCCCCCCCCCCCCCC(=O)OC [methyl octadecanoate]
7 | -2.00 °C | CCC(=O)OC [methyl propanoate]
8 | 95.00 °C | CS(C)=O [methylsulfinylmethane]
9 | 252.00 °C | Oc1cccc2c(O)cccc12 [naphthalene-1,5-diol]
10 | 88.00 °C | c1ccc2ccccc2c1 [naphthalene]
11 | 26.00 °C | C=CCCCCCCC [non-1-ene]
12 | 83.00 °C | CCCCCCCCC=O [nonanal]
13 | 210.00 °C | O=C(O)CCCCCCCC(=O)O [nonanedioic acid]
14 | 133.00 °C | CCCCCCCCC(=O)O [nonanoic acid]
15 | 21.00 °C | C=CCCCCCC [oct-1-ene]
16 | 149.00 °C | CCCCCCCCCCCCCCCCCCN [octadecan-1-amine]
17 | 185.00 °C | CCCCCCCCCCCCCCCCCCS [octadecane-1-thiol]
18 | 238.00 °C | CCCCCCCCCCCCCCCCCCOC(=O)CCCCCCCCCCCCCCC [octadecyl hexadecanoate]
19 | 52.00 °C | CCCCCCCC=O [octanal]
20 | 91.00 °C | C=C(C)C(=O)OCCCCCCCC [octyl 2-methylprop-2-enoate]
21 | 82.00 °C | C=CC(=O)OCCCCCCCC [octyl prop-2-enoate]
22 | 61.00 °C | C=CC(=O)OCC1CO1 (stereo not given) [oxiran-2-ylmethyl prop-2-enoate]
23 | 75.00 °C | OCC1CCCO1 (stereo not given) [oxolan-2-ylmethanol]
24 | 157.00 °C | O=C1CCC(=O)O1 [oxolane-2,5-dione]
25 | -14.00 °C | C1CCOC1 [oxolane]

Row | flash point | SMILES
26 | -51.00 °C | C=CCCC [pent-1-ene]
27 | -28.00 °C | C=CC=CC [penta-1,3-diene]
28 | 32.00 °C | CCCC(C)OC(C)=O (stereo not given) [pentan-2-yl acetate]
29 | 30.00 °C | CCC(O)CC [pentan-3-ol]
30 | 62.00 °C | NCCCCCN [pentane-1,5-diamine]
31 | 129.00 °C | OCCCCCO [pentane-1,5-diol]
32 | 19.00 °C | CCC(=O)C(C)=O [pentane-2,3-dione]
33 | 33.00 °C | CCCCCOC(C)=O [pentyl acetate]
34 | 26.00 °C | CCCCCOC=O [pentyl formate]
35 | 41.00 °C | CCCCCOC(=O)CC [pentyl propanoate]
36 | 80.00 °C | CC(=O)Oc1ccccc1 [phenyl acetate]
37 | 101.00 °C | OCc1ccccc1 [phenylmethanol]
38 | 88.00 °C | C1CNCCN1 [piperazine]
39 | 16.00 °C | C=C(C)OC(C)=O [prop-1-en-2-yl acetate]
40 | 54.00 °C | C=C(C)c1ccccc1 [prop-1-en-2-ylbenzene]
41 | -108.00 °C | C=CC [prop-1-ene]
42 | 39.00 °C | C=CCOC(=O)CC(C)C [prop-2-enyl 3-methylbutanoate]
43 | -37.00 °C | CC(C)N [propan-2-amine]
44 | -6.00 °C | CC(C)OC=O [propan-2-yl formate]
45 | 99.00 °C | CC(O)CO (stereo not given) [propane-1,2-diol]
46 | -34.00 °C | CC(C)S [propane-2-thiol]
47 | 54.00 °C | CCC(=O)O [propanoic acid]
48 | 30.00 °C | C=C(C)C(=O)OCCC [propyl 2-methylprop-2-enoate]
49 | 187.00 °C | CCCOC(=O)c1cc(O)c(O)c(O)c1 [propyl 3,4,5-trihydroxybenzoate]
50 | 14.00 °C | CCCOC(C)=O [propyl acetate]

Row | flash point | SMILES
51 | 48.00 °C | CCCc1ccccc1 [propylbenzene]
52 | 92.00 °C | Nc1ccccn1 [pyridin-2-amine]
53 | 190.00 °C | NNC(=O)c1ccncc1 [pyridine-4-carbohydrazide]
54 | 31.00 °C | C=Cc1ccccc1 [styrene]
55 | 60.00 °C | CC(C)(C)c1ccccc1 [tert-butylbenzene]
56 | 100.00 °C | CCCCCCCCCCCCCC [tetradecane]
57 | -27.00 °C | C[Si](C)(C)C [tetramethylsilane]
58 | 13.00 °C | C1CCSC1 [thiolane]
59 | 93.00 °C | CCCCOB(OCCCC)OCCCC [tributyl borate]
60 | 91.00 °C | Cl[Si](Cl)(Cl)C1CCCCC1 [trichloro(cyclohexyl)silane]
61 | 146.00 °C | CCCCCCCCCCCCCCCC[Si](Cl)(Cl)Cl [trichloro(hexadecyl)silane]
62 | 89.00 °C | CCCCCCCCCCCCCCCCCC[Si](Cl)(Cl)Cl [trichloro(octadecyl)silane]
63 | 63.00 °C | CCCCC[Si](Cl)(Cl)Cl [trichloro(pentyl)silane]
64 | 35.00 °C | C=CC[Si](Cl)(Cl)Cl [trichloro(prop-2-enyl)silane]
65 | 141.00 °C | Clc1ccc([Si](Cl)(Cl)Cl)cc1Cl [trichloro-(3,4-dichlorophenyl)silane]
66 | 79.00 °C | C=CCCCCCCCCCCC [tridec-1-ene]
67 | 107.00 °C | CCCCCCCCCCCC(C)=O [tridecan-2-one]
68 | -53.00 °C | C[CH2][Al]([CH2]C)[CH2]C [triethylalumane]
69 | -36.00 °C | CCB(CC)CC [triethylborane]
70 | 28.00 °C | CC(C)OB(OC(C)C)OC(C)C [tripropan-2-yl borate]
71 | -23.00 °C | CC(C)[CH2][Al]([CH2]C(C)C)[CH2]C(C)C [tris(2-methylpropyl)alumane]
72 | 93.00 °C | CCCCCCCCCCCO [undecan-1-ol]
73 | 90.00 °C | S=C([S-])NCCNC(=S)[S-].[Zn+2] [zinc;N-[2-(sulfidocarbothioylamino)ethyl]carbamodithioate]
74 | 277.00 °C | CCCCCCCCCCCCCCCCCC(=O)[O-].CCCCCCCCCCCCCCCCCC(=O)[O-].[Zn+2] [zinc;octadecanoate]

Row | SMILES | flash point
75 | COC(=O)C(C)Oc1ccc(Oc2ccc(Cl)cc2Cl)cc1 (stereo not given) [methyl 2-[4-(2,4-dichlorophenoxy)phenoxy]propanoate] | 38.00 °C
76 | COS(=O)(=O)c1ccc(C)cc1 [methyl 4-methylbenzenesulfonate] | 152.00 °C
77 | COC(=O)/C=C(\C)OP(=O)(OC)OC [methyl (E)-3-dimethoxyphosphoryloxybut-2-enoate] | 79.00 °C
78 | COS(C)(=O)=O [methyl methanesulfonate] | 104.00 °C
79 | C=CC(=O)OC [methyl prop-2-enoate] | 7.00 °C
80 | Nc1cccc2ccccc12 [naphthalen-1-amine] | 157.00 °C
81 | C[N+](=O)[O-] [nitromethane] | 35.00 °C
82 | CCCCCC(=O)CC [octan-3-one] | 46.00 °C
83 | CCCCCCCC(=O)O [octanoic acid] | 110.00 °C
84 | O=CC=O [oxaldehyde] | 220.00 °C
85 | O=C1CCO1 [oxetan-2-one] | 70.00 °C
86 | C1CO1 [oxirane] | -18.00 °C
87 | O=C1CCCO1 [oxolan-2-one] | 98.00 °C
88 | CCCCCO[N+](=O)[O-] [pentyl nitrate] | 49.00 °C
89 | c1ccc(Oc2ccccc2)cc1 [phenoxybenzene] | 115.00 °C
90 | C=CC=O [prop-2-enal] | -26.00 °C

Row | SMILES | flash point
91 | C=CC(=O)O [prop-2-enoic acid] | 54.00 °C
92 | C=CC(=O)Cl [prop-2-enoyl chloride] | 14.00 °C
93 | C=CCOC(=O)COCCC(C)C [prop-2-enyl 2-(3-methylbutoxy)acetate] | 68.00 °C
94 | CC(C)=O [propan-2-one] | -18.00 °C
95 | CC(C)OC(=O)Cc1ccccc1 [propan-2-yl 2-phenylacetate] | 95.00 °C
96 | CCCS [propane-1-thiol] | -15.00 °C
97 | CCC(=O)OC(=O)CC [propanoyl propanoate] | 63.00 °C
98 | ClC(Cl)(Cl)c1ccccc1 [trichloromethylbenzene] | 127.00 °C
99 | C1=CC2C3C=CC(C3)C2C1 (stereo not given) [tricyclo[5.2.1.02,6]deca-3,8-diene] | 32.00 °C
100 | O=P(Oc1ccccc1)(Oc1ccccc1)Oc1ccccc1 [triphenyl phosphate] | 220.00 °C
101 | c1ccc(P(c2ccccc2)c2ccccc2)cc1 [triphenylphosphane] | 180.00 °C
102 | Cc1ccc(OP(=O)(Oc2ccc(C)cc2C)Oc2ccc(C)cc2C)c(C)c1 [tris(2,4-dimethylphenyl) phosphate] | 232.00 °C
103 | O=P(OCCCl)(OCCCl)OCCCl [tris(2-chloroethyl) phosphate] | 232.00 °C
104 | CCCCC(CC)COP(OCC(CC)CCCC)OCC(CC)CCCC (stereo not given) [tris(2-ethylhexyl) phosphite] | 171.00 °C
105 | Cc1ccc(OP(=O)(Oc2ccc(C)cc2)Oc2ccc(C)cc2)cc1 [tris(4-methylphenyl) phosphate] | 210.00 °C

Remark: another data set of the same source

Row | flash point | SMILES
106 | 59 °C | C[C@@H]1CCCC[C@H]1O (relative stereo) [trans-2-methylcyclohexanol]
107 | 13 °C | CCOC(CC)OCC [1,1-diethoxypropane]
108 | -17 °C | COC(C)OC [1,1-dimethoxyethane]
109 | 7 °C | CC1(C)CCCCC1 [1,1-dimethylcyclohexane]

Row | SMILES | flash point
110 | CC(Cl)Cl [1,1-dichloroethane] | -10 °C
